The values that follow come from PubChem BioAssay AID256 (DTP/NCI, 2004).

The assay relates to CD2F1 mice, L1210 leukemia ip, survival T/C. In words: NCI In Vivo Anticancer Drug Screen. Data for tumor model L1210 Leukemia (intraperitoneal) in CD2F1 (CDF1) mice. Particulars: higher = longer survival. The method in brief: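 Implant tumor; dose compound or vehicle; measure endpoint in both groups; report treated divided by control.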
Setting [1] is: endpoint: mean survival time, dose: 100.0 mg/kg/injection, schedule: Q04DX002 (ip), vehicle: saline with Tween-80.
The mark [2] stands for this setting: endpoint: mean survival time, dose: 100.0 mg/kg/injection, schedule: Q01DX009 (ip), vehicle: saline with Tween-80.
Setting [3] is: endpoint: mean survival time, dose: 200.0 mg/kg/injection, schedule: Q01DX009 (ip), vehicle: saline with Tween-80.
Where [4] appears, read: endpoint: mean survival time, dose: 400.0 mg/kg/injection, schedule: Q01DX009 (ip), vehicle: saline with Tween-80.
Where [5] appears, read: endpoint: mean survival time, dose: 100.0 mg/kg/injection, schedule: Q04DX003 (ip), vehicle: saline with Tween-80.
Where [6] appears, read: endpoint: mean survival time, dose: 200.0 mg/kg/injection, schedule: Q04DX003 (ip), vehicle: saline with Tween-80.
Where [7] appears, read: endpoint: mean survival time, dose: 400.0 mg/kg/injection, schedule: Q04DX003 (ip), vehicle: saline with Tween-80.

Where “and” joins values, the source holds several entries; their conditions need not be identical. Identical values can stand only once. Toxic doses and inconclusive results are not listed.

With `CC(C)(C)[Si](OP(=O)(O[Si](c1ccccc1)(c1ccccc1)C(C)(C)C)N(CCCl)CCCl)(c1ccccc1)c1ccccc1`, the T/C runs as follows: (endpoint: mean survival time, dose: 15.63 mg/kg/injection, schedule: Q01DX001 (ip), vehicle: distilled water + Tween-80) 101 % of control; (endpoint: mean survival time, dose: 31.25 mg/kg/injection, schedule: Q01DX001 (ip), vehicle: distilled water + Tween-80) 95 % of control; (endpoint: mean survival time, dose: 62.5 mg/kg/injection, schedule: Q01DX001 (ip), vehicle: distilled water + Tween-80) 101 % of control; (endpoint: mean survival time, dose: 125.0 mg/kg/injection, schedule: Q01DX001 (ip), vehicle: distilled water + Tween-80) 98 % of control; (endpoint: mean survival time, dose: 250.0 mg/kg/injection, schedule: Q01DX001 (ip), vehicle: distilled water + Tween-80) 92 % of control; (endpoint: mean survival time, dose: 500.0 mg/kg/injection, schedule: Q01DX001 (ip), vehicle: distilled water + Tween-80) 103 % of control.

On to `NC1CCCCC1N.O=C([O-])c1cc(S(=O)(=O)Nc2cc(S(=O)(=O)[O-])cc3cc(S(=O)(=O)[O-])cc(O)c23)ccc1[O-].[Pt+4]`, for which the T/C was 124 % of control (endpoint: median survival time, dose: 0.39 mg/kg/injection, schedule: Q04DX003 (ip), vehicle: saline with Tween-80); 181 % of control (endpoint: median survival time, dose: 1.56 mg/kg/injection, schedule: Q04DX003 (ip), vehicle: saline with Tween-80); 253 % of control and 264 % of control (endpoint: median survival time, dose: 3.12 mg/kg/injection, schedule: Q04DX003 (ip), vehicle: saline with Tween-80); 289 % of control and 103 % of control (endpoint: median survival time, dose: 6.25 mg/kg/injection, schedule: Q04DX003 (ip), vehicle: saline with Tween-80).

Take `O=C1OC(O)(c2ccc(Cl)cc2)C(Cc2ccccc2)=C1c1ccccc1` (centres undefined): the T/C under setting [1] was 97 % of control; the T/C (endpoint: mean survival time, dose: 200.0 mg/kg/injection, schedule: Q04DX002 (ip), vehicle: saline with Tween-80) is 90 % of control; the T/C (endpoint: mean survival time, dose: 400.0 mg/kg/injection, schedule: Q04DX002 (ip), vehicle: saline with Tween-80) was 102 % of control.

As to `CC(C)CCCC(C)C1CCC2C3CCC4CC5OCC(O)CC5CC4(C)C3CCC12C` (centres undefined), the T/C is 96 % of control under setting [2], 100 % of control under setting [3] and 96 % of control under setting [4].

Turning to `COc1cc(NS(C)(=O)=O)ccc1Nc1c2ccccc2nc2cc(C(F)(F)F)c(N)cc12`, the T/C (endpoint: mean survival time, dose: 200.0 mg/kg/injection, schedule: Q01DX001 (ip), vehicle: Klucel (hydroxypropylcellulose) (HPC)) was 154 % of control and the T/C (endpoint: mean survival time, dose: 400.0 mg/kg/injection, schedule: Q01DX001 (ip), vehicle: Klucel (hydroxypropylcellulose) (HPC)) is 265 % of control.

As for `CC[N+](CC)(CCOc1ccc(C(C)(C)CC(C)(C)C)cc1)Cc1ccccc1`, under “endpoint: mean survival time, dose: 5.0 mg/kg/injection, schedule: Q04DX003 (ip), vehicle: saline”, the T/C is 102 % of control.

For the compound `C[C@@](O)(/C=C/[C@H]1CC=CC(=O)O1)[C@@H](C[C@@H](O)\C=C/C=C\C=C\CO)OP(=O)(O)O`, the T/C by setting is: (endpoint: median survival time, dose: 0.4 mg/kg/injection, schedule: Q01DX005 (iv), vehicle: other) 109 % of control; (endpoint: median survival time, dose: 0.78 mg/kg/injection, schedule: Q01DX005 (iv), vehicle: other) 109 % of control; (endpoint: median survival time, dose: 1.56 mg/kg/injection, schedule: Q01DX005 (iv), vehicle: other) 112 % of control; (endpoint: median survival time, dose: 1.56 mg/kg/injection, schedule: Q01DX005 (iv), vehicle: saline) 121 % of control; (endpoint: median survival time, dose: 1.56 mg/kg/injection, schedule: Q01DX009 (ip), vehicle: other) 243 % of control; (endpoint: median survival time, dose: 1.56 mg/kg/injection, schedule: Q01DX009 (ip), vehicle: saline) 216 % of control. Besides, the T/C by setting is: (endpoint: median survival time, dose: 3.12 mg/kg/injection, schedule: Q01DX009 (ip), vehicle: other) 170 % of control and 191 % of control; (endpoint: median survival time, dose: 3.12 mg/kg/injection, schedule: Q01DX009 (ip), vehicle: saline) 204 % of control; (endpoint: median survival time, dose: 3.13 mg/kg/injection, schedule: Q01DX005 (iv), vehicle: other) 123 % of control; (endpoint: median survival time, dose: 3.13 mg/kg/injection, schedule: Q01DX009 (ip), vehicle: other) 235 % of control; (endpoint: median survival time, dose: 6.25 mg/kg/injection, schedule: Q01DX005 (iv), vehicle: other) 162 % of control; (endpoint: median survival time, dose: 6.25 mg/kg/injection, schedule: Q01DX009 (ip), vehicle: other) 194 % of control and 207 % of control and 512 % of control. The T/C reads like this: (endpoint: median survival time, dose: 6.25 mg/kg/injection, schedule: Q01DX009 (ip), vehicle: saline) 216 % of control; (endpoint: median survival time, dose: 12.5 mg/kg/injection, schedule: Q01DX005 (iv), vehicle: other) 197 % of control; (endpoint: median survival time, dose: 12.5 mg/kg/injection, schedule: Q01DX005 (iv), vehicle: saline) 178 % of control; (endpoint: median survival time, dose: 12.5 mg/kg/injection, schedule: Q01DX009 (ip), vehicle: other) 117 % of control and 337 % of control; (endpoint: median survival time, dose: 12.5 mg/kg/injection, schedule: Q01DX009 (ip), vehicle: saline) 722 % of control; (endpoint: median survival time, dose: 25.0 mg/kg/injection, schedule: Q01DX005 (iv), vehicle: other) 259 % of control. Also, the T/C was 201 % of control (endpoint: median survival time, dose: 25.0 mg/kg/injection, schedule: Q01DX005 (iv), vehicle: saline); 273 % of control (endpoint: median survival time, dose: 25.0 mg/kg/injection, schedule: Q01DX009 (ip), vehicle: other); 240 % of control (endpoint: median survival time, dose: 50.0 mg/kg/injection, schedule: Q01DX005 (iv), vehicle: saline).

On to `CCOC(=O)c1cnn(CCO)c1N`, for which the T/C runs as follows: (endpoint: mean survival time, dose: 50.0 mg/kg/injection, schedule: Q04DX003 (ip), vehicle: water) 100 % of control; (endpoint: mean survival time, dose: 100.0 mg/kg/injection, schedule: Q04DX003 (ip), vehicle: water) 97 % of control; (endpoint: mean survival time, dose: 200.0 mg/kg/injection, schedule: Q04DX003 (ip), vehicle: water) 101 % of control; (endpoint: mean survival time, dose: 400.0 mg/kg/injection, schedule: Q04DX003 (ip), vehicle: water) 103 % of control and 107 % of control; (endpoint: mean survival time, dose: 600.0 mg/kg/injection, schedule: Q04DX003 (ip), vehicle: water) 101 % of control; (endpoint: mean survival time, dose: 800.0 mg/kg/injection, schedule: Q04DX003 (ip), vehicle: water) 105 % of control.

Regarding `COc1ccc(NC(=O)C(c2ccccc2)c2ccccc2)cc1`, the T/C is 105 % of control under setting [2], 102 % of control under setting [3] and 92 % of control under setting [4].

For the compound `CC(=O)OCCC/C(=C\c1ccc(Cl)cc1)[N+](=O)[O-]`, the T/C reads like this: (endpoint: mean survival time, dose: 100.0 mg/kg/injection, schedule: Q01DX001 (ip), vehicle: saline) 100 % of control; (endpoint: mean survival time, dose: 200.0 mg/kg/injection, schedule: Q01DX001 (ip), vehicle: saline) 102 % of control; (endpoint: mean survival time, dose: 400.0 mg/kg/injection, schedule: Q01DX001 (ip), vehicle: saline) 98 % of control.

Turning to `NC(=O)Nc1n[nH]c(-c2ccccc2)n1`, the T/C under setting [5] is 93 % of control, the T/C under setting [6] is 91 % of control and the T/C under setting [7] is 91 % of control.

In the case of `CC(C)(C)c1ccc(SC(=O)c2ccc(C(=O)Sc3ccc(C(C)(C)C)cc3)cc2)cc1`, the T/C reads like this: (endpoint: mean survival time, dose: 25.0 mg/kg/injection, schedule: Q04DX002 (ip), vehicle: saline with Tween-80) 91 % of control; (endpoint: mean survival time, dose: 50.0 mg/kg/injection, schedule: Q04DX002 (ip), vehicle: saline with Tween-80) 87 % of control; under setting [1], 91 % of control and 102 % of control.

In the case of `Cn1c(CC(O)(C(F)(F)F)C(F)(F)F)c(C(O)(C(F)(F)F)C(F)(F)F)c2ccccc21`, the T/C is 101 % of control (endpoint: mean survival time, dose: 5.0 mg/kg/injection, schedule: Q04DX003 (ip), vehicle: saline with Tween-80); 90 % of control (endpoint: mean survival time, dose: 10.0 mg/kg/injection, schedule: Q04DX003 (ip), vehicle: saline with Tween-80); 90 % of control (endpoint: mean survival time, dose: 20.0 mg/kg/injection, schedule: Q04DX003 (ip), vehicle: saline with Tween-80).

In the case of `CC(=O)Oc1ccc([N+](=O)[O-])cc1[N+](=O)[O-]`, under “endpoint: mean survival time, dose: 25.0 mg/kg/injection, schedule: Q04DX002 (ip), vehicle: Klucel (hydroxypropylcellulose) (HPC)”, the T/C is 93 % of control.

With `CCCCCC(C)C(C)=O` (centres undefined), the T/C is 101 % of control under setting [2], 106 % of control under setting [3] and 92 % of control under setting [4].

Consider `CCCCCCCCOC(=O)c1ccccc1C(=O)OCCCCCCCC`, for which the T/C under setting [2] is 110 % of control; the T/C under setting [5] is 98 % of control; the T/C under setting [3] was 102 % of control; the T/C under setting [6] is 93 % of control; the T/C under setting [4] is 98 % of control; the T/C under setting [7] was 90 % of control.

With `CN1CC[C@]23c4c5ccc(O)c4O[C@H]2C(=O)CC[C@H]3[C@H]1C5`, the T/C is 95 % of control (endpoint: mean survival time, dose: 12.5 mg/kg/injection, schedule: Q01DX009 (ip), vehicle: saline); 102 % of control (endpoint: mean survival time, dose: 25.0 mg/kg/injection, schedule: Q01DX009 (ip), vehicle: saline); 93 % of control (endpoint: mean survival time, dose: 50.0 mg/kg/injection, schedule: Q01DX009 (ip), vehicle: saline).
